These results are taken from US7534913B2, “Crystalline form of nateglinide” (Teva Pharmaceutica Industries Ltd., priority 2002, dated 2009).

For series [1] the following is noted: by DSC, according to U.S. Pat. No. 5,463,116; cited from earlier work.
Series [2] can be described thus: Thermal stability: transformation of crystalline forms on drying or heating, form by XRPD. Particulars: for form obtained upon drying / heating: generally about 40° C. to about 80° C. It is filed as physicochemical. The procedure: The various crystalline forms are related to each other in that drying of one form may result in a transformation to another form, namely nateglinide Forms A, B, D, E, F, G, H, I, J, K, L, M, N, Q, S, T, V, Z, α, β, δ,γ, ε, θ and Ω. The drying is carried out by heating a sample under ambient or reduced pressure. Generally, a preferred temperature is from about 40° C. to about 80° C., more preferably under reduced pressure. […] The term “stable” as used herein refers to a polymorphic change of less than about 5% by weight, more preferably less than about 2%, particularly for Form δ.
Form γ may also be prepared by heating Form J containing seeds of Form γ under similar conditions.
• X-Ray diffraction was performed on X-Ray powder diffractometer, Scintag®, variable goniometer, Cu-tube, solid state detector. Sample holder: A round standard aluminum sample holder with round zero background quartz plate. • The sample was put on the sample holder and immediately analyzed as is. Scanning parameters: Range: 2-40 deg 2θ, Continuos Scan, Rate: 3 deg./min. DSC: • DSC821^e Mettler Toledo®, Sample weight: 3-5 mg, Heating rate: 10° C./min, Number of holes in the crucible: 3 TGA: • Mettler TG50®, Sample weight: 7-15 mg, Heating rate: 10° C./min FTIR: • Perkin-Elmer®, Spectrum One FTIR spectrometer, Range: 4000-400 cm-1, no. of scans: 16, resolution: 4.0 cm-1, DRIFT technique.
Nateglinide Form delta (10 grams), with about 3% heptane (wt/wt), was dried in a fluidized bed drier for 4 hours at 60° C.
Sample of nateglinide form U (˜1 g) was introduced into a 6-gram vial and heated over 8.5 h in a 100° C. oil bath. The vial were extracted from the bath.
Sample of nateglinide form U (˜0.5 g) was heated to 120° C. for 1 h in an atmospheric pressure.
Sample of nateglinide form δ (˜0.5 g) was heated to 120° C. for 1 h in an atmospheric pressure.
The product of example 11 was dried at 50° C. in a vacuum oven overnight, and analyzed by XRD.
Nateglinide (40 grams) Form delta (1.5% heptane) was dried in a stirred reactor (7-10 rpm) under 60 mmHg vacuum and at 60° C.

The mark [3] stands for this setting: heating under ambient or reduced pressure.

The structures appear in SMILES notation.

For `CC(C)[C@H]1CC[C@H](C(=O)N[C@H](Cc2ccccc2)C(=O)O)CC1` [Form B, nateglinide], in series [1], the “stability of crystals during grinding” value is “unstable and susceptible to change during grinding”.

For `CC(C)[C@H]1CC[C@H](C(=O)N[C@H](Cc2ccccc2)C(=O)O)CC1` [Form Ω, nateglinide], the “form by XRD after drying in a vacuum oven” value in series [2] (wet sample, 50° C., vacuum oven, overnight) is “mixture of Form omega and Form Z”. For `CC(C)[C@H]1CC[C@H](C(=O)N[C@H](Cc2ccccc2)C(=O)O)CC1` [acetonitrile solvate of Form Epsilon, nateglinide], the “form obtained upon drying / heating” value in series [2] (setting [3]) is “Form B”. Turning to `CC(C)[C@H]1CC[C@H](C(=O)N[C@H](Cc2ccccc2)C(=O)O)CC1` [delta], in series [2] (60 mmHg vacuum, 60° C., 6 hours, 7-10 rpm, starting with 1.5% heptane), the “polymorph after drying in a stirred reactor” value is reported as “remained delta form”. Further, the “polymorphic form after drying in a fluidized bed drier” value in series [2] (4 hours at 60° C., starting with about 3% heptane (wt/wt)) is “delta”. As to `CC(C)[C@H]1CC[C@H](C(=O)N[C@H](Cc2ccccc2)C(=O)O)CC1` [nitromethane solvates of Form Epsilon, nateglinide], in series [2] (setting [3]), the “form obtained upon drying / heating” value is listed as “Forms H or P”. Regarding `CC(C)[C@H]1CC[C@H](C(=O)N[C@H](Cc2ccccc2)C(=O)O)CC1` [sigma], the “thermal stability (conversion to another form upon heating)” value in series [2] (setting [3]) is listed as “thermally stable”.
